Patent publication US20190048016A1, “SUBSTITUTED BRIDGED UREA ANALOGS AS SIRTUIN MODULATORS” (GlaxoSmithKline Intellectual Property(No.2)Limited, priority 2014, published 2019)

Target: T1, SIRT1 (Homo sapiens, UniProt Q96EB6)
T1 sequence (Q96EB6 1-747): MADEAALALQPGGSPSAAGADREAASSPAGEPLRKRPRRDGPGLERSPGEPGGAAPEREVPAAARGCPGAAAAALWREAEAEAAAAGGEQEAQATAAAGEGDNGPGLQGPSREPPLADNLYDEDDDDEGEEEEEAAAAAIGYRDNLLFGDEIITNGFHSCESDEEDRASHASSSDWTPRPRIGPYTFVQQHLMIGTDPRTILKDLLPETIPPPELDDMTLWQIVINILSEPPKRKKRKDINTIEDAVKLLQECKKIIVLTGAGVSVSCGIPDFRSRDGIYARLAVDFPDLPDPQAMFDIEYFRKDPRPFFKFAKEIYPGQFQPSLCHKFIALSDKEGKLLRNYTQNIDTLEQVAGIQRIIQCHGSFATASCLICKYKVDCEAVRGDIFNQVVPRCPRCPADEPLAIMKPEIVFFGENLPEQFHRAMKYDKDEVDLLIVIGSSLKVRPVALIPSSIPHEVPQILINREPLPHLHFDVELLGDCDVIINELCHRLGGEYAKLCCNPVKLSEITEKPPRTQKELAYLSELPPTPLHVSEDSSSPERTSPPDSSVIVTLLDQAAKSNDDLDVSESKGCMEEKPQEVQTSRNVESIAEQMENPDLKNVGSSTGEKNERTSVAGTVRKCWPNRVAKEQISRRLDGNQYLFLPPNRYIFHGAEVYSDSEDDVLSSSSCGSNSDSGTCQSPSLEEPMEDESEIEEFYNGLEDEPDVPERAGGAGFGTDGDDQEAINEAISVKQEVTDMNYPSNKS
Assay: Trp mass spectrometry assay of SIRT1 activation (deacetylation of Ac-R-H-K-K(Ac)-W-NH2 peptide, OAADPR formation)
Type: biochemical
Details: Trp peptide 0.5 μM, 120 μM βNAD+, 10 nM SIRT1, 25 min, 25° C.; for Emax: 25 min, read-out: TRP MAX RESP (percent maximum fold activation relative to control = 100%)
Summary of the method: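 10 nM His-tagged SIRT1 (E. coli expressed) with 0.5 μM Ac-RHKK(Ac)W-NH2 and 120 μM βNAD+, 25 min at 25° C, HEPES pH 7.5, […]; formic acid stop. OAADPR or deacetylated peptide measured by mass spectrometry; EC1.5 = concentration giving 150% activity versus DMSO control; maximum activation also reported.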

Compound	Emax	TRP Activity (EC1.5, concentration of compound required to increase SIRT1 activity by 50% over control)
O=C(Nc1cccnn1)N1c2nc(-c3ccnc(C(F)(F)F)c3)ccc2N2CCC[C@H]1C2 [Example 6, (9S)-N-(pyridazin-3-yl)-2-(2-(trifluoromethyl)pyridin-4-yl)-8,9-dihydro-6H-5,9-methanopyrido[2,3-b][1,4]diazocine-10(7H)-carboxamide]	≥ 150%	A (EC1.5<1 μM)
O=C(Nc1cncnc1)N1c2nc(-c3cncc(C(F)(F)F)c3)ccc2N2CCC[C@H]1C2 [Example 3, (9S)-N-(pyrimidin-5-yl)-2-(5-(trifluoromethyl)pyridin-3-yl)-8,9-dihydro-6H-5,9-methanopyrido[2,3-b][1,4]diazocine-10(7H)-carboxamide]	≥ 150%	A (EC1.5<1 μM)
C[C@@H](NC(=O)c1ccc2c(n1)N(C(=O)Nc1cnc(OC[C@H](O)CO)cn1)[C@H]1CCCN2C1)C(F)(F)F [Example 49, (9S)-N10-(5-((R)-2,3-dihydroxypropoxy)pyrazin-2-yl)-N2-((R)-1,1,1-trifluoropropan-2-yl)-8,9-dihydro-6H-5,9-methanopyrido[2,3-b][1,4]diazocine-2,10(7H)-dicarboxamide]	≥ 150%	A (EC1.5<1 μM)
O=C(Nc1cncnc1)N1c2nc(-c3ccnc(C(F)(F)F)c3)ccc2N2CCC[C@H]1C2 [Example 10, (9S)-N-(pyrimidin-5-yl)-2-(2-(trifluoromethyl)pyridin-4-yl)-8,9-dihydro-6H-5,9-methanopyrido[2,3-b][1,4]diazocine-10(7H)-carboxamide]	≥ 150%	A (EC1.5<1 μM)
Cc1ccc2c(NC(=O)N3c4nc(C(=O)NC5CC5(F)F)ccc4N4CCC[C@H]3C4)n[nH]c2n1 (single isomer, unassigned) [Example 53]		A (EC1.5<1 μM)

Continued, values first:

Emax	TRP Activity (EC1.5, concentration of compound required to increase SIRT1 activity by 50% over control)	Compound
≥ 150%	A (EC1.5<1 μM)	Cc1cc(-c2ccc3c(n2)N(C(=O)Nc2ccccn2)[C@H]2CCCN3C2)ccn1 [Example 4, (9S)-2-(2-methylpyridin-4-yl)-N-(pyridin-2-yl)-8,9-dihydro-6H-5,9-methanopyrido[2,3-b][1,4]diazocine-10(7H)-carboxamide]
≥ 150%	A (EC1.5<1 μM)	O=C(Nc1cccc(OC[C@H](O)CO)n1)N1c2nc(-c3cccc(C(F)(F)F)c3)c(Cl)cc2N2CCC[C@H]1C2 [Example 65, (9S)-3-chloro-N-(6-((R)-2,3-dihydroxypropoxy)pyridin-2-yl)-2-(3-(trifluoromethyl)phenyl)-8,9-dihydro-6H-5,9-methanopyrido[2,3-b][1,4]diazocine-10(7H)-carboxamide]
≥ 150%	A (EC1.5<1 μM)	O=C(Nc1ccnc(OC[C@@H](O)CO)n1)N1c2nc(-c3cccc(C(F)(F)F)c3)c(Cl)cc2N2CCC[C@H]1C2 [Example 81, (9S)-3-chloro-N-(2-((S)-2,3-dihydroxypropoxy)pyrimidin-4-yl)-2-(3-(trifluoromethyl)phenyl)-8,9-dihydro-6H-5,9-methanopyrido[2,3-b][1,4]diazocine-10(7H)-carboxamide]
≥ 150%	A (EC1.5<1 μM)	Cc1cc2c(nc1-c1cccc(C(F)(F)F)c1)N(C(=O)Nc1cc(OC[C@H](O)CO)ccn1)[C@H]1CCCN2C1 [Example 91, (9S)-N-(4-((R)-2,3-dihydroxypropoxy)pyridin-2-yl)-3-methyl-2-(3-(trifluoromethyl)phenyl)-8,9-dihydro-6H-5,9-methanopyrido[2,3-b][1,4]diazocine-10(7H)-carboxamide]
≥ 150%	B (EC1.5 1-25 μM)	Cc1cc(-c2ccc3c(n2)N(C(=O)Nc2cncc(C)n2)[C@H]2CCCN3C2)ccn1 [Example 21]
≥ 150%	A (EC1.5<1 μM)	O=C(Nc1ccc(OC[C@H](O)CO)nc1)N1c2nc(-c3cccc(C(F)(F)F)c3)c(Cl)cc2N2CCC[C@H]1C2 [Example 79, (9S)-3-chloro-N-(6-((R)-2,3-dihydroxypropoxy)pyridin-3-yl)-2-(3-(trifluoromethyl)phenyl)-8,9-dihydro-6H-5,9-methanopyrido[2,3-b][1,4]diazocine-10(7H)-carboxamide]
